14 compounds from PubChem BioAssay AID292 (DTP/NCI, 2004) can be followed below.

The test system of the assay is B6C3F1 mice, ip Sarcoma M5076, median survival T/C. The assay can be described thus: NCI In Vivo Anticancer Drug Screen. Data for tumor model Sarcoma M5076 (intraperitoneal) in B6C3F1 mice. The following applies: endpoint: median survival time, higher = longer survival. The essentials: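 Tumour cells were transplanted into mice, compound or vehicle was given, survival of both groups was followed, and the treated figure was expressed over the control figure.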

Where [1] appears, read: dose: 50.0 mg/kg/injection, schedule: Q04DX004 (ip), vehicle: Klucel (hydroxypropylcellulose) (HPC).
The mark [2] stands for this setting: dose: 50.0 mg/kg/injection, schedule: Q04DX004 (ip), vehicle: saline with Tween-80.
Where [3] appears, read: dose: 100.0 mg/kg/injection, schedule: Q04DX004 (ip), vehicle: saline with Tween-80.
[4] abbreviates: dose: 200.0 mg/kg/injection, schedule: Q04DX004 (ip), vehicle: saline with Tween-80.

Several values for one entry are separate records, joined by “and”; a condition that tells them apart may be missing. Equal entries are not always repeated. Toxic doses and inconclusive results are not listed.

As for `CC(=O)NO`, the T/C (dose: 100.0 mg/kg/injection, schedule: Q04DX004 (ip), vehicle: water) was 97 % of control and 100 % of control and 105 % of control; the T/C (dose: 200.0 mg/kg/injection, schedule: Q04DX004 (ip), vehicle: water) was 101 % of control and 103 % of control and 104 % of control; the T/C (dose: 400.0 mg/kg/injection, schedule: Q04DX004 (ip), vehicle: water) was 107 % of control and 109 % of control; the T/C (dose: 800.0 mg/kg/injection, schedule: Q04DX004 (ip), vehicle: water) is 106 % of control and 108 % of control; the T/C (dose: 1600.0 mg/kg/injection, schedule: Q04DX004 (ip), vehicle: water) is 113 % of control and 115 % of control.
Turning to `Cc1ccc2c(c1)C1(C)OC(C=CC1=O)O2` (configuration not stated), the T/C (dose: 25.0 mg/kg/injection, schedule: Q04DX004 (ip), vehicle: Klucel (hydroxypropylcellulose) (HPC)) was 96 % of control and the T/C under setting [1] was 103 % of control.
For `Cn1c(=O)ccc2c1nc1ccccc1[n+]2[O-]`, the T/C runs as follows: (dose: 12.5 mg/kg/injection, schedule: Q04DX004 (ip), vehicle: saline with Tween-80) 98 % of control; (dose: 25.0 mg/kg/injection, schedule: Q04DX004 (ip), vehicle: saline with Tween-80) 99 % of control; under setting [2], 103 % of control; under setting [3], 99 % of control; under setting [4], 94 % of control.
`N[C@@H](Cc1ccc(N(CCCl)CCCl)cc1)C(=O)O`: the T/C by setting is: (dose: 0.5 mg/kg/injection, schedule: Q04DX004 (ip), vehicle: saline with Tween-80) 124 % of control; (dose: 2.0 mg/kg/injection, schedule: Q04DX004 (ip), vehicle: saline with Tween-80) 188 % of control; (dose: 2.0 mg/kg/injection, schedule: Q04DX004 (ip), vehicle: saline) 151 % of control; (dose: 4.0 mg/kg/injection, schedule: Q04DX004 (ip), vehicle: saline with Tween-80) 213 % of control and 221 % of control; (dose: 4.0 mg/kg/injection, schedule: Q04DX004 (ip), vehicle: saline) 172 % of control; (dose: 8.0 mg/kg/injection, schedule: Q04DX004 (ip), vehicle: saline with Tween-80) 251 % of control. Further, for the setting “dose: 8.0 mg/kg/injection, schedule: Q04DX004 (ip), vehicle: saline”, the T/C was 251 % of control.
With `CC(C)CCC(=O)c1ccoc1`, the T/C is 96 % of control (dose: 0.25 mg/kg/injection, schedule: Q03HX012 (ip), vehicle: saline with Tween-80); 96 % of control (dose: 0.5 mg/kg/injection, schedule: Q03HX012 (ip), vehicle: saline with Tween-80); 90 % of control (dose: 1.0 mg/kg/injection, schedule: Q03HX012 (ip), vehicle: saline with Tween-80); 99 % of control (dose: 2.0 mg/kg/injection, schedule: Q03HX012 (ip), vehicle: saline with Tween-80).
Consider `NC(=O)C(N)C(F)c1ccccc1` (configuration not stated), for which the T/C is 100 % of control (dose: 31.25 mg/kg/injection, schedule: Q04DX004 (ip), vehicle: saline with Tween-80); 116 % of control (dose: 62.5 mg/kg/injection, schedule: Q04DX004 (ip), vehicle: saline with Tween-80); 93 % of control (dose: 125.0 mg/kg/injection, schedule: Q04DX004 (ip), vehicle: saline with Tween-80); 96 % of control (dose: 250.0 mg/kg/injection, schedule: Q04DX004 (ip), vehicle: saline with Tween-80).
With `CC(=O)C1C(=O)C(=O)N(c2ccc(C)cc2C)C1=O` (configuration not stated), the T/C is 102 % of control under setting [1] and 98 % of control (dose: 100.0 mg/kg/injection, schedule: Q04DX004 (ip), vehicle: Klucel (hydroxypropylcellulose) (HPC)).
On to `COC1CC(C)C(OC)c2cc(O)cc(c2O)NC(=O)/C(C)=C/C=C\C(C)C(OC(N)=O)/C(C)=C\C(C)C1OC` (configuration not stated), for which the T/C is, setting by setting: (dose: 0.63 mg/kg/injection, schedule: Q01DX009 (ip), vehicle: saline + alcohol) 115 % of control; (dose: 1.25 mg/kg/injection, schedule: Q01DX009 (ip), vehicle: saline + alcohol) 111 % of control; (dose: 1.8 mg/kg/injection, schedule: Q01DX009 (ip), vehicle: saline + alcohol) 122 % of control; (dose: 2.5 mg/kg/injection, schedule: Q01DX009 (ip), vehicle: saline + alcohol) 107 % of control.
`Nc1nc2n[nH]nc2c(=O)[nH]1`: the T/C is 118 % of control (dose: 50.0 mg/kg/injection, schedule: Q04DX004 (ip), vehicle: suspension in saline) and 123 % of control (dose: 200.0 mg/kg/injection, schedule: Q04DX004 (ip), vehicle: suspension in saline).
Regarding `CCOC(=O)N(C)N=NC`, the T/C (dose: 1.3 mg/kg/injection, schedule: Q04DX004 (ip), vehicle: saline) was 110 % of control; the T/C (dose: 2.16 mg/kg/injection, schedule: Q04DX004 (ip), vehicle: saline) is 119 % of control; the T/C (dose: 3.6 mg/kg/injection, schedule: Q04DX004 (ip), vehicle: saline) is 122 % of control; the T/C (dose: 10.0 mg/kg/injection, schedule: Q04DX004 (ip), vehicle: saline) was 155 % of control; the T/C (dose: 30.0 mg/kg/injection, schedule: Q04DX004 (ip), vehicle: saline) was 158 % of control; the T/C (dose: 60.0 mg/kg/injection, schedule: Q04DX004 (ip), vehicle: saline) is 168 % of control.
Consider `C[CH2][Sn]([Cl])([CH2]C)[c]1cc[c]([Sn]([Cl])([CH2]C)[CH2]C)cc1`, for which the T/C (dose: 0.06 mg/kg/injection, schedule: Q04DX004 (ip), vehicle: Klucel (hydroxypropylcellulose) (HPC)) was 102 % of control; the T/C (dose: 0.12 mg/kg/injection, schedule: Q04DX004 (ip), vehicle: Klucel (hydroxypropylcellulose) (HPC)) is 89 % of control; the T/C (dose: 0.25 mg/kg/injection, schedule: Q04DX004 (ip), vehicle: Klucel (hydroxypropylcellulose) (HPC)) was 91 % of control; the T/C (dose: 0.5 mg/kg/injection, schedule: Q04DX004 (ip), vehicle: Klucel (hydroxypropylcellulose) (HPC)) is 101 % of control; the T/C (dose: 90.0 micrograms/kg/injection, schedule: Q04DX004 (ip), vehicle: Klucel (hydroxypropylcellulose) (HPC)) is 106 % of control; the T/C (dose: 150.0 micrograms/kg/injection, schedule: Q04DX004 (ip), vehicle: Klucel (hydroxypropylcellulose) (HPC)) is 96 % of control. For the same compound, the T/C (dose: 250.0 micrograms/kg/injection, schedule: Q04DX004 (ip), vehicle: Klucel (hydroxypropylcellulose) (HPC)) is 100 % of control; the T/C (dose: 416.7 micrograms/kg/injection, schedule: Q04DX004 (ip), vehicle: Klucel (hydroxypropylcellulose) (HPC)) was 98 % of control; the T/C (dose: 694.5 micrograms/kg/injection, schedule: Q04DX004 (ip), vehicle: Klucel (hydroxypropylcellulose) (HPC)) was 107 % of control.
`O=[n+]1c2c(n([O-])c3cc(Cl)c(Cl)cc31)CCCC2`: the T/C was 99 % of control (dose: 18.75 mg/kg/injection, schedule: Q04DX004 (ip), vehicle: saline with Tween-80); 97 % of control (dose: 37.5 mg/kg/injection, schedule: Q04DX004 (ip), vehicle: saline with Tween-80); 100 % of control (dose: 75.0 mg/kg/injection, schedule: Q04DX004 (ip), vehicle: saline with Tween-80); 97 % of control (dose: 150.0 mg/kg/injection, schedule: Q04DX004 (ip), vehicle: saline with Tween-80); 95 % of control (dose: 300.0 mg/kg/injection, schedule: Q04DX004 (ip), vehicle: saline with Tween-80).
For `CC1(CO)C(O)CCC2(C)C1CCC1CC3CC12CCC3(O)CO` (configuration not stated), the T/C runs as follows: (dose: 51.8 mg/kg/injection, schedule: Q04DX005 (ip), vehicle: Klucel (hydroxypropylcellulose) (HPC)) 120 % of control; (dose: 86.4 mg/kg/injection, schedule: Q04DX004 (ip), vehicle: Klucel (hydroxypropylcellulose) (HPC)) 120 % of control; (dose: 86.4 mg/kg/injection, schedule: Q04DX005 (ip), vehicle: Klucel (hydroxypropylcellulose) (HPC)) 124 % of control; (dose: 144.0 mg/kg/injection, schedule: Q04DX004 (ip), vehicle: Klucel (hydroxypropylcellulose) (HPC)) 116 % of control; (dose: 144.0 mg/kg/injection, schedule: Q04DX005 (ip), vehicle: Klucel (hydroxypropylcellulose) (HPC)) 123 % of control; (dose: 240.0 mg/kg/injection, schedule: Q04DX005 (ip), vehicle: Klucel (hydroxypropylcellulose) (HPC)) 122 % of control. Also, the T/C (dose: 400.0 mg/kg/injection, schedule: Q04DX004 (ip), vehicle: Klucel (hydroxypropylcellulose) (HPC)) is 151 % of control and 164 % of control.
Take `Cc1ccc2c(c1)C1(SC(C)C(=O)N1c1ccc(Cl)cc1)C(=O)N2` (configuration not stated): the T/C was 96 % of control under setting [2]; 101 % of control under setting [3]; 98 % of control under setting [4]; 93 % of control (dose: 400.0 mg/kg/injection, schedule: Q04DX004 (ip), vehicle: saline with Tween-80); 86 % of control (dose: 800.0 mg/kg/injection, schedule: Q04DX004 (ip), vehicle: saline with Tween-80).
